Laboratory results reported in patent publication US9629899B2, “Targeted cargo protein combination therapy” (priority 2008, dated 2017).

How the values were obtained:
MIA-PaCa-2 cells = assay: cells; type: cell-based, human
SW1990 cells = assay: cells; type: cell-based, human
Capan-1 cells = assay: cells; type: cell-based, human
HS766T cells = assay: Protein synthesis inhibition assay (cytotoxicity), HS766T; type: cell-based; details: Homo sapiens, read-out: IC50 (50% protein synthesis inhibition), single agent
Description: Protein synthesis inhibition assay and assessment of synergism or antagonism. […] On the basis of the isobologram analysis for mutually exclusive effects, the CI value was calculated as follows:

MIA-PaCa-2-GFP tumors [1] = assay: Early pancreatic tumor model, orthotopic MIA-PaCa-2-GFP, whole-body imaging and survival; type: in vivo, nude mice
Description: (§1) Surgical orthotopic implantation of MIA-PaCa-2-GFP tumors. MIA-PaCa-2-GFP cells were injected s.c. into the right dorsal flank of nude mice. Pancreatic tumors, grown s.c. in nude mice, were cut with scissors and minced into f3% 3% 3-mm pieces. For orthotopic surgery, the pancreas was carefully exposed, and tumor chunks were transplanted on the middle of the pancreas with a 6-0 Dexon surgical suture (Davis-Geck, Inc.). The pancreas was then returned to the peritoneal cavity, the abdominal wall, and the skin was closed with 6-0 Dexon sutures.
Experimental design and treatment. For early pancreatic cancer model, primary tumor lesions were detected by external whole-body imaging on day 4 after transplantation. Once the tumors were visualized, mice were randomized into four groups of 10 each. Treatment was initiated on day 5. For advanced pancreatic cancer model, primary and metastasis tumor lesions were detected by external whole-body imaging on day 14 post-transplantation of tumor chunk and randomized into four groups of 10 mice each. Treatment was initiated on day 15.
(§2) Statistical analysis. The mean tumor volume in therapeutic and control groups was analyzed by ANOVA. Survival curves were generated by Kaplan-Meier method and compared by using the log-rank test.
Treatment was initiated on day 5 after transplantation. […]

MIA-PaCa-2-GFP tumors [2] = assay: Advanced metastatic pancreatic tumor model, orthotopic MIA-PaCa-2-GFP, whole-body imaging and survival; type: in vivo, nude mice
Description: as §1
For advanced pancreatic cancer model, primary and metastasis tumor lesions were detected by external whole-body imaging on day 14 post-transplantation of tumor chunk and randomized into four groups of 10 mice each. Treatment was initiated on day 15.
The mean tumor volume in therapeutic and control groups was analyzed by ANOVA. Survival curves were generated by Kaplan-Meier method and compared by using the log-rank test.
Group 2 animals received gemcitabine (150 mg/kg) by i.p. administration twice a week as long as the experiment lasted.

[3] = system: clinical pancreatic cancer sample xenograft; assay: Advanced orthotopic pancreatic cancer model from a clinical sample, survival; type: in vivo; details: clinical sample in SCID mice, treatment from day 31; gemcitabine 150 mg/kg i.p. twice a week; PRX321 100 ug/kg i.p. twice a day days 31-35; non-treatment 62 days
Description: Primary and orthotopic pancreatic cancer model using a clinical sample. […] Viable tumor tissue from specimen was cut into small pieces (3% 3% 3 mm) and implanted in the pancreas of 5- to 6-week-old male SCID mice. Primary xenografts were propagated continuously in SCID mice for in vivo testing. Clinical sample-bearing mice were also treated after day 31 by the same protocol as described above.
as §2
These mice, when advanced disease developed, were divided into four groups on day 31 and treated as described in Materials and Methods. […] Group 2 animals received gemcitabine (150 mg/kg) by i.p. administration twice a week as long as the experiment lasted.

[4] = mice receiving optimal doses; data not shown
[5] = Homo sapiens, read-out: IC50 (50% protein synthesis inhibition), single agent

**Q.** With `Nc1ccn([C@@H]2O[C@H](CO)[C@@H](O)C2(F)F)c(=O)n1` [Gemcitabine] as the compound, how does the IC50 (MIA-PaCa-2 cells; [5]) read?
**A.** 22 nM

**Q.** What about the “IC75 (75% protein synthesis inhibition)” value (MIA-PaCa-2 cells; single agent) of the same compound?
**A.** 280 nM

**Q.** What about the IC50 (SW1990 cells; [5]) of the same compound?
**A.** 1000 nM

**Q.** What about the “IC75 (75% protein synthesis inhibition)” value (SW1990 cells; single agent) of the same compound?
**A.** 3,000 nmol/L

**Q.** What about the IC50 (Capan-1 cells; [5]) of the same compound?
**A.** 3.2 nM

**Q.** What about the “IC75 (75% protein synthesis inhibition)” value (Capan-1 cells; single agent) of the same compound?
**A.** 9 nM

**Q.** What about the IC50 (HS766T cells) of the same compound?
**A.** 14 nM

**Q.** And the Median survival time (MIA-PaCa-2-GFP tumors [1]; non-treatment group 27 days)?
**A.** 54 days

**Q.** What about the “Tumor growth compared with non-treatment group (whole-body imaging)” value (MIA-PaCa-2-GFP tumors [1]; treatment from day 5, gemcitabine 150 mg/kg i.p. twice a week, PRX321 100 ug/kg i.p. twice a day for 5 days) of the same compound?
**A.** reduction in the rate of tumor growth

**Q.** What about the “Reduction in tumor size on day 28 compared with the no treatment group” value (MIA-PaCa-2-GFP tumors [2]; day 28) of the same compound?
**A.** 39.8%

**Q.** And the Median survival time (MIA-PaCa-2-GFP tumors [2]; non-treatment group 28 days)?
**A.** 34 days

**Q.** And the “Tumor growth compared with non-treatment group (whole-body imaging)” value (MIA-PaCa-2-GFP tumors [2]; treatment from day 15, gemcitabine 150 mg/kg i.p. twice a week, PRX321 100 ug/kg i.p. twice a day for 5 days)?
**A.** reduction in the rate of tumor growth

**Q.** What about the Median survival time [3] of the same compound?
**A.** 86 days

**Q.** What about the “Visible signs of toxicity (weight loss, inactivity)” value [4] of the same compound?
**A.** no visible signs of toxicity
